{
  "source": "paper PMC12372887",
  "about": "“Mechanism and cellular actions of the potent AMPK inhibitor BAY-3827” (Science Advances, 2025)",
  "target": "T1, ULK1 (Homo sapiens, UniProt O75385)",
  "T1 sequence (O75385 1-1050)": "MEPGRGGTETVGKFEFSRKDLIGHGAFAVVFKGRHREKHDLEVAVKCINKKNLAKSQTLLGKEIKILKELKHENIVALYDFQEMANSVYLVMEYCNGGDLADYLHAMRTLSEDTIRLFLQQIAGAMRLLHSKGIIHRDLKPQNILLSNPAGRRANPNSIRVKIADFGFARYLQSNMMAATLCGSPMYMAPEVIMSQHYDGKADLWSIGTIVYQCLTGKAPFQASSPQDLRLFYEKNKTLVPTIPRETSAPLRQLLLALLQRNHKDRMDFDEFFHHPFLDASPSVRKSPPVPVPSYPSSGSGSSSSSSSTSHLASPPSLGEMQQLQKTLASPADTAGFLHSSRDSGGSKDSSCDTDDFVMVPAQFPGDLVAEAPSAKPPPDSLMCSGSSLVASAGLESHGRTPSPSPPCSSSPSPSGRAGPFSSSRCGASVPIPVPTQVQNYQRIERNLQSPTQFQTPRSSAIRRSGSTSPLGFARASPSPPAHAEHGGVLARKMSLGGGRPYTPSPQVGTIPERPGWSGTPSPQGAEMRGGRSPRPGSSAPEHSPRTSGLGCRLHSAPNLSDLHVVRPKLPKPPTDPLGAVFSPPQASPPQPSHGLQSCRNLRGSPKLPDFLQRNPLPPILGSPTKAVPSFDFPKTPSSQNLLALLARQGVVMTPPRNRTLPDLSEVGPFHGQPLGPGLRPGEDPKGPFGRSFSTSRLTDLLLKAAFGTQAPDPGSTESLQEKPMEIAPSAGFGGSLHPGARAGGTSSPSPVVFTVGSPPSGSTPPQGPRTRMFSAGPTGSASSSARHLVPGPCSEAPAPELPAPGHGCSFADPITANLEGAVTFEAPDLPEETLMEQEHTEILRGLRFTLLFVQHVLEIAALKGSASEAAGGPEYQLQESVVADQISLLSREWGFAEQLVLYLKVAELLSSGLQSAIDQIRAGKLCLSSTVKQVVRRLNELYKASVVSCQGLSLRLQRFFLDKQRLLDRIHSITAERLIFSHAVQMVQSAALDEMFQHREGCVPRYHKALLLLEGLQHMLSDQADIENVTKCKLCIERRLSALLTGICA",
  "experiment": "Cell-free ULK1 kinase assay (S108tide)",
  "assay_type": "biochemical",
  "conditions": "increasing concentrations, 0 to 1 μM",
  "protocol": "Heterotrimeric human AMPK FLAG- α1β1γ1, FLAG- α2β1γ1, and FLAG- α2β2γ1, as well as human FLAG-CaMKK2 and FLAG-ULK1, were produced in mammalian HEK293 cells as described ([66], [67]). For AMPK expression, the cells were triply transfected at 60% confluency using FuGene HD (Roche Applied Science) and 1 μg of pcDNA3 plasmid expression constructs for AMPK Flag-α1, β1-Myc, β2-Myc, and HA-γ1. For CaMKK2 expression, the cells were transfected with 1 μg of pcDNA3 Flag-CaMKK2 plasmid. For ULK1 expression, the cells were transfected with […] of pcDNA3 FLAG-ULK1 plasmid. After 48 hours, the transfected cells were harvested by rinsing with ice-cold PBS, followed by rapid lysis using 500 μl of lysis buffer. AMPK, CaMKK2, and ULK1 kinase activities were determined by phosphorylation of synthetic peptide substrates: SAMS (HMRSAMSGLHLVKRR), CaMKKtide ([…]), and S108tide. (KLPLTRSHNNFVARRR), respectively. Briefly, recombinant AMPK, CaMKK2, or ULK1 were immunoprecipitated from 10 μg of transfected cultured cell lysate using 10 μl of anti-FLAG M2 agarose beads [50% (v/v)] […] Radioactivity was quantified by liquid scintillation counting. […]",
  "data": [
    {"smiles": "CC1=C(C#N)C(c2ccc3c(c2)c(NC(=O)c2ccccc2C)nn3C)C(C#N)=C(C)N1", "note": "[BAY-974, N-[5-(3,5-dicyano-2,6-dimethyl-1,4-dihydropyridin-4-yl)-1-methylindazol-3-yl]-2-methylbenzamide]", "values": [
      {"measurement": "inhibitory effect on kinase activity", "value": "no inhibitory effect"}
    ]},
    {"smiles": "CCc1ccccc1C(=O)Nc1n[nH]c2c(C)c(F)c(C3C(C#N)=C(C)N(C)C(C)=C3C#N)cc12", "note": "[BAY-3827, N-[5-(3,5-dicyano-1,2,6-trimethyl-4H-pyridin-4-yl)-6-fluoro-7-methyl-1H-indazol-3-yl]-2-ethylbenzamide]", "values": [
      {"measurement": "inhibitory effect on kinase activity", "value": "no inhibitory effect"}
    ]}
  ]
}
